# Measurements as given in PubChem BioAssay (NCI).
#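 A five-concentration, 48-hour dose response in 96-well plates underlies each endpoint, interpolated linearly between surrounding concentrations. GI50 is the concentration that inhibits growth by half. Definition used: TGI = concentration required for complete inhibition of growth.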
# Tested on: HCT-116 colon
# Assay: DTP human tumour cell line panel, 48 h
Structure (SMILES),TGI,GI50
NCC1Nc2ccccc2[C@@H](O)C1O (stereo partly specified),> 100 µM,–
OC[C@H]1CCCC1O (stereo partly specified),> 100 µM,–
Cc1cccc(N2CCN(C(=S)c3ccc4c(c3)OCO4)CC2)c1,> 100 µM,0.513 µM
O=C1OC(C(O)CO)C(=O)C1=O (stereo unspecified),6520 µM,2460 µM
COC(=O)C1=CNC=C(C(=O)OC)C1C1=CC(=O)C(C)=CC1=O,3.79 µM,1.94 µM
C=C1C(=O)O[C@H]2[C@H]1CC/C(COC(=O)C(=O)c1cn(Cc3ccccc3)c3ccccc13)=C\CC[C@@]1(C)O[C@@H]21,3.36 µM,1.62 µM
Cc1ccc(C(=O)CN(/C=C/C(=O)C(F)(F)F)c2ccc(S(N)(=O)=O)cc2)cc1,> 100 µM,41.9 µM
COC(C(O)CO)C(O)C(O)C(=O)NNc1ccccc1 (stereo unspecified),> 100 µM,–
NS(=O)(=O)c1ccc(NC2(C(=O)O)CCCC2)cc1,> 100 µM,–
O=C(O)C1OC(n2cc(F)c(=O)[nH]c2=O)CC1O (stereo unspecified),> 100 µM,–
CC(C)C(Nc1c2ccccc2nc2ccccc12)C(=O)O (stereo unspecified),> 100 µM,–
N=C1C(c2nc3ccccc3s2)=C(O)CN1c1cc(C(F)(F)F)ccc1Cl,62.2 µM,8.59 µM
COc1ccccc1CCc1cc(OC)c(OC)c(OC)c1,> 100 µM,–
COc1cc2c(cc1OC)C(CC(=O)NN=C(C)C)NCC2 (stereo unspecified),> 100 µM,–
COC(=O)/C(=N\Nc1nnc(C)n1N)C(C#N)c1ccc(Cl)cc1 (stereo unspecified),> 100 µM,–
Cc1cccc(NC(=O)C(=O)C(C(=O)c2ccc3ccccc3c2)C2OC(=O)c3ccccc32)c1C (stereo unspecified),22.2 µM,–
CCOC(=O)[C@@H](N)CCC(=O)N[C@@H](CSCc1ccccc1)C(=O)N[C@@H](C(=O)OCC)c1ccccc1,36.8 µM,18.3 µM
COc1ccc(Nc2c3ccccc3nc3occc23)cc1,> 32.3 µM,1.54 µM
CS/C(N)=N\NC(=O)CCC(=O)Nc1ccccc1C(F)(F)F,> 100 µM,–
CC(=O)/C(C)=N/NC(=O)c1ccccc1O,> 100 µM,> 100 µM
CCCCCCCC/C=C/CCCCCCCC(=O)OC[C@H]1O[C@@H](n2ccc(N)nc2=O)C(F)(F)[C@@H]1O,> 100 µM,< 0.018 µM
NS(=O)(=O)c1ccc(N=Nc2c(O)[nH]c3ccc(-c4cnco4)cc23)cc1,> 25 µM,6.97 µM
CCC[CH2][Sn]1([CH2]CCC)[O]CC(CN2CCCC2)[O]1 (stereo unspecified),30.6 µM,16.9 µM

# Tested on: CAKI-1 renal
# Assay: DTP human tumour cell line panel, 48 h
Structure (SMILES),TGI,GI50
Cc1nc(N)sc1C(=O)/C=C\c1ccc2c(c1)OCO2,> 100 µM,–
CN1CCN(CCCOc2ccc3nc(Nc4ccc(Cl)c(C(F)(F)F)c4)ccc3c2)CC1,28.4 µM,14.9 µM
Cn1c(=O)c(C(c2ccc([N+](=O)[O-])cc2)c2c(O)c3ccccc3n(C)c2=O)cc2ccccc21 (stereo unspecified),> 100 µM,–
CC(C)n1nc(-c2cc3cc(O)ccc3[nH]2)c2c(N)ncnc21,1.77 µM,0.262 µM
CCCCC(O)(c1ccc(Cl)cc1)C(CN1CCOCC1)c1ccc(Cl)cc1 (stereo unspecified),32.6 µM,14.6 µM
CCOC(=O)C1=C(C)N(NC(=O)Nc2ccccc2)C(=O)C1=P(c1ccccc1)(c1ccccc1)c1ccccc1,> 100 µM,–
COc1cc(C=C2C(=O)NC(=O)NC2=O)cc(OC)c1OC,> 100 µM,–
Nn1c(=O)n(Cc2ccccc2)n(-c2ccccc2)c1=O,> 100 µM,–
NCC1Nc2ccccc2[C@@H](O)C1O (stereo partly specified),> 100 µM,–
OC[C@H]1CCCC1O (stereo partly specified),> 100 µM,–
Cc1cccc(N2CCN(C(=S)c3ccc4c(c3)OCO4)CC2)c1,> 100 µM,0.485 µM
O=C1OC(C(O)CO)C(=O)C1=O (stereo unspecified),9630 µM,3220 µM
COC(=O)C1=CNC=C(C(=O)OC)C1C1=CC(=O)C(C)=CC1=O,19.4 µM,6.71 µM
C=C1C(=O)O[C@H]2[C@H]1CC/C(COC(=O)C(=O)c1cn(Cc3ccccc3)c3ccccc13)=C\CC[C@@]1(C)O[C@@H]21,34.5 µM,2.96 µM
